This test concerns the target Prothrombin (Homo sapiens, UniProt P00734). Kind of test: Binding affinity against thrombin.

As usually defined, the Ki is a dissociation constant, usually derived from enzyme kinetics or from competition with a known ligand. Regarding `N=C(N)C[C@H]1CC[C@@H](NC(=O)[C@@H]2CCCN2C(=O)[C@@H](Cc2ccccc2)NS(=O)(=O)Cc2ccccc2)CC1`, the affinity, expressed as Ki, was 0.27 nM.

The values are drawn from ChEMBL document CHEMBL1132184, “Two-stage method for protein-ligand docking” (J Med Chem, 1999).
